Results from ChEMBL document CHEMBL1150452, “Kinetic characterization of a peptide inhibitor of trypsin isolated from a synthetic peptide combinatorial library” (Bioorg Med Chem Lett, 1995).
One block for each molecule: values may come before it.

Legend:
[1] = biological target: T1, Serine protease 1 (Bos taurus) (UniProt P00760)
T1 sequence (whole entry): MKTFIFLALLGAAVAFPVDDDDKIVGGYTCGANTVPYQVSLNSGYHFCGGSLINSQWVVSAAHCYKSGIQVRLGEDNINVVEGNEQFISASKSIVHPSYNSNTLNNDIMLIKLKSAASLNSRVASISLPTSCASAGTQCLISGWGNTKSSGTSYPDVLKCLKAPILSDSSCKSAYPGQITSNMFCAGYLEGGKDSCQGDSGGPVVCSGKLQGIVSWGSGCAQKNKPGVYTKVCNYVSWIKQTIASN
Description: (§1) Trypsin inhibitory potency was evaluated from the catalytic constant Kcat.

[2] = biological target: T1, Serine protease 1 (Bos taurus); remark: listed apart in the source
Description: as §1

Serine protease 1 [3] = biological target: T2, Serine protease 1 (Bos taurus, UniProt P00760); experiment: Inhibitory activity against trypsin mediated Tyr-Gly-Aer-p- nitroaniline
T2 sequence (P00760 whole entry): T1 sequence (whole entry)

Serine protease 1 [4] = biological target: T2, Serine protease 1; experiment: Inhibitory activity against trypsin
[5] = substrate: CC[C@H](C)[C@H](NC(=O)[C@H](CCCCN)NC(=O)CNC(=O)[C@H](Cc1ccc(O)cc1)NC(=O)[C@@H](N)Cc1ccc(O)cc1)C(=O)N[C@@H](Cc1ccc(O)cc1)C(=O)N[C@@H](CCCN=C(N)N)C(=O)N1CCC[C@H]1C(=O)N[C@@H](CC(=O)O)C(=O)N[C@@H](CCCCN)C(=O)N[C@@H](CCSC)C(=O)O; conditions: Bos taurus
Description: Trypsin inhibitory potency was evaluated from the Michaelis-Menten constant KM.

- k cat [1]: 0.73 s⁻¹
Molecule: H-YYGKIYRPDKM-OH

- k cat [2]: 87 s⁻¹
Molecule: H-YYGAKAYRPDKM-OH

- Ki (Serine protease 1 [3]): 9.4 µM
- IC50 (Serine protease 1 [4]): 10 µM
Molecule: H-YYGAKIYRPDKM-OH

- k cat [2]: 0.6 s⁻¹
Molecule: CC[C@H](C)[C@H](NC(=O)[C@H](CCCCN)NC(=O)[C@H](C)NC(=O)CNC(=O)[C@H](Cc1ccc(O)cc1)NC(=O)[C@@H](N)Cc1ccc(O)cc1)C(=O)N[C@@H](Cc1ccc(O)cc1)C(=O)N[C@@H](C)C(=O)N1CCC[C@@H]1C(=O)N[C@@H](CC(=O)O)C(=O)N[C@@H](CCCCN)C(=O)N[C@@H](CCSC)C(=O)O

- k cat [2]: 30 s⁻¹
Molecule: CC[C@H](C)[C@H](NC(=O)[C@H](CCCN=C(N)N)NC(=O)[C@H](C)NC(=O)CNC(=O)[C@H](Cc1ccc(O)cc1)NC(=O)[C@@H](N)Cc1ccc(O)cc1)C(=O)N[C@@H](Cc1ccc(O)cc1)C(=O)N[C@@H](CCCN=C(N)N)C(=O)N1CCC[C@@H]1C(=O)N[C@@H](CC(=O)O)C(=O)N[C@@H](CCCCN)C(=O)N[C@@H](CCSC)C(=O)O

- k cat [2]: 1.3 s⁻¹
Molecule: CC[C@H](C)[C@H](NC(=O)[C@H](CCCCN)NC(=O)[C@H](C)NC(=O)CNC(=O)[C@H](Cc1ccc(O)cc1)NC(=O)[C@@H](N)Cc1ccc(O)cc1)C(=O)N[C@@H](C)C(=O)N[C@@H](CCCN=C(N)N)C(=O)N1CCC[C@@H]1C(=O)N[C@@H](CC(=O)O)C(=O)N[C@@H](CCCCN)C(=O)N[C@@H](CCSC)C(=O)O

B1: Serine protease 1 (Bos taurus), P00760 (protein)
chain: T1 sequence (whole entry)
- Km [5]: 24 mM
